Experimental data reported in paper PMC5218480 (PLoS ONE, 2017).

Test system: MV-4-11 cells
Experiment: Gene expression microarray analysis (Affymetrix PrimeView) and GSEA
Type: cell-based, human
Set-up: RFU PODN (11730768_x_at) / Fold change /veh PODN (11730768_x_at) / RFU LINC00158 (11744669_a_at) / Fold change /veh LINC00158 (11744669_a_at) / RFU DUSP10 (11751237_a_at) / Fold change /veh DUSP10 (11751237_a_at) / RFU ID3 (11757404_x_at) / Fold change /veh ID3 (11757404_x_at) / RFU PLEKHG5 (11737974_s_at) / Fold change /veh PLEKHG5 (11737974_s_at) / RFU LRRC4B (11730491_at) / Fold change /veh LRRC4B (11730491_at) / RFU GIMAP4 (11747438_a_at) / Fold change /veh GIMAP4 (11747438_a_at) / RFU KRT8 (11758183_x_at) / Fold change /veh KRT8 (11758183_x_at) / RFU CNN1 (11734310_a_at) / Fold change /veh CNN1 (11734310_a_at) / RFU VPS37D (11726825_at) / Fold change /veh VPS37D (11726825_at) / RFU C10orf10 (11716522_x_at) / Fold change /veh C10orf10 (11716522_x_at) / RFU KIR2DL2 /// KIR2DL4 /// KIR2DL5A /// KIR2DL5B /// KIR2DS1 /// KIR2DS2 /// KIR2DS3 /// KIR2DS4 /// KIR3DL3 /// KIR3DL3 /// KIR3DS1 (11738374_at) / Fold change /veh KIR2DL2 /// KIR2DL4 /// KIR2DL5A /// KIR2DL5B /// KIR2DS1 /// KIR2DS2 /// KIR2DS3 /// KIR2DS4 /// KIR3DL3 /// KIR3DL3 /// KIR3DS1 (11738374_at) / RFU C1QL1 (11718748_at) / Fold change /veh C1QL1 (11718748_at) / RFU TMPRSS4 (11747572_a_at) / Fold change /veh TMPRSS4 (11747572_a_at) / RFU HAMP (11756126_x_at) / Fold change /veh HAMP (11756126_x_at) / RFU RNFT2 (11725882_a_at) / Fold change /veh RNFT2 (11725882_a_at) / RFU NR4A2 (11747474_a_at) / Fold change /veh NR4A2 (11747474_a_at) / RFU ABCC12 (11746883_a_at) / Fold change /veh ABCC12 (11746883_a_at) / RFU TMEM136 (11760407_x_at) / Fold change /veh TMEM136 (11760407_x_at) / RFU CLDN22 /// WWC2 (11732394_at) / Fold change /veh CLDN22 /// WWC2 (11732394_at) / RFU HLA-DPB1 (11760878_x_at) / Fold change /veh HLA-DPB1 (11760878_x_at) / RFU SPINT1 (11716480_a_at) / Fold change /veh SPINT1 (11716480_a_at) / RFU GAP43 (11754022_s_at) / Fold change /veh GAP43 (11754022_s_at) / RFU A4GNT (11735810_at) / Fold change /veh A4GNT (11735810_at) / RFU PRB3 (11715151_x_at) / Fold change /veh PRB3 (11715151_x_at) / RFU TUBB4B (11761932_at) / Fold change /veh TUBB4B (11761932_at) / RFU CAPN14 (11732068_a_at) / Fold change /veh CAPN14 (11732068_a_at) / RFU TMCC2 (11721928_a_at) / Fold change /veh TMCC2 (11721928_a_at) / RFU IRGQ (11745062_a_at) / Fold change /veh IRGQ (11745062_a_at) / RFU FAM174B (11720279_a_at) / Fold change /veh FAM174B (11720279_a_at) / RFU TMPRSS4 (11748680_a_at) / Fold change /veh TMPRSS4 (11748680_a_at) / RFU FAM212B (11763350_a_at) / Fold change /veh FAM212B (11763350_a_at) / RFU PLEKHG5 (11743358_a_at) / Fold change /veh PLEKHG5 (11743358_a_at) / RFU ZSCAN30 (11745921_a_at) / Fold change /veh ZSCAN30 (11745921_a_at) / RFU CMKLR1 (11741424_a_at) / Fold change /veh CMKLR1 (11741424_a_at) / RFU LOC101060620 /// MAPK8IP1 (11723275_at) / Fold change /veh LOC101060620 /// MAPK8IP1 (11723275_at) / RFU SPTSSB (11747773_x_at) / Fold change /veh SPTSSB (11747773_x_at) / RFU PRSS12 (11739890_at) / Fold change /veh PRSS12 (11739890_at) / RFU BIN1 (11741810_x_at) / Fold change /veh BIN1 (11741810_x_at) / RFU WNT11 (11732464_a_at) / Fold change /veh WNT11 (11732464_a_at) / RFU C10orf10 (11716521_a_at) / Fold change /veh C10orf10 (11716521_a_at) / RFU C5orf56 (11738089_at) / Fold change /veh C5orf56 (11738089_at) / RFU CYB561 (11721691_x_at) / Fold change /veh CYB561 (11721691_x_at) / RFU ANKRD19P (11752326_a_at) / Fold change /veh ANKRD19P (11752326_a_at) / RFU OR2T12 /// OR2T33 /// OR2T8 (11738714_s_at) / Fold change /veh OR2T12 /// OR2T33 /// OR2T8 (11738714_s_at) / RFU VCAN (11748164_a_at) / Fold change /veh VCAN (11748164_a_at) / RFU JSRP1 (11732532_at) / Fold change /veh JSRP1 (11732532_at) / RFU KRTAP10-11 (11738290_x_at) / Fold change /veh KRTAP10-11 (11738290_x_at) / RFU MYO3A (11730013_a_at) / Fold change /veh MYO3A (11730013_a_at) / RFU EBF3 (11725865_a_at) / Fold change /veh EBF3 (11725865_a_at) / RFU CAMK2N1 (11719241_x_at) / Fold change /veh CAMK2N1 (11719241_x_at) / RFU C5orf56 (11738088_a_at) / Fold change /veh C5orf56 (11738088_a_at) / RFU OLFML3 (11715873_a_at) / Fold change /veh OLFML3 (11715873_a_at) / RFU LOC100653217 /// NTM (11731650_a_at) / Fold change /veh LOC100653217 /// NTM (11731650_a_at) / RFU MAPK11 (11762145_a_at) / Fold change /veh MAPK11 (11762145_a_at) / RFU FIZ1 (11724087_x_at) / Fold change /veh FIZ1 (11724087_x_at) / RFU OASL (11726364_x_at) / Fold change /veh OASL (11726364_x_at) / RFU SOX15 (11748057_x_at) / Fold change /veh SOX15 (11748057_x_at) / RFU CD79A (11719716_a_at) / Fold change /veh CD79A (11719716_a_at) / RFU HIST1H1D (11736915_at) / Fold change /veh HIST1H1D (11736915_at) / RFU CASKIN2 (11723855_a_at) / Fold change /veh CASKIN2 (11723855_a_at) / RFU LOC730098 (11760151_x_at) / Fold change /veh LOC730098 (11760151_x_at) / RFU OR4N2 (11742367_at) / Fold change /veh OR4N2 (11742367_at) / RFU PRRT2 (11749266_a_at) / Fold change /veh PRRT2 (11749266_a_at) / RFU SNX32 (11753110_a_at) / Fold change /veh SNX32 (11753110_a_at) / RFU CDHR5 (11726645_a_at) / Fold change /veh CDHR5 (11726645_a_at) / RFU RCAN1 (11760418_a_at) / Fold change /veh RCAN1 (11760418_a_at) / RFU FAM167A (11723789_a_at) / Fold change /veh FAM167A (11723789_a_at) / RFU FAM26E (11764081_at) / Fold change /veh FAM26E (11764081_at) / RFU ISYNA1 (11749810_s_at) / Fold change /veh ISYNA1 (11749810_s_at) / RFU ACY1 (11761880_at) / Fold change /veh ACY1 (11761880_at) / RFU 11764098_at / Fold change /veh 11764098_at / RFU SAMD14 (11745864_x_at) / Fold change /veh SAMD14 (11745864_x_at) / RFU NPB (11741838_a_at) / Fold change /veh NPB (11741838_a_at) / RFU TMPRSS6 (11731388_a_at) / Fold change /veh TMPRSS6 (11731388_a_at) / RFU KRTAP10-2 (11738614_at) / Fold change /veh KRTAP10-2 (11738614_at) / RFU ARHGAP8 /// PRR5-ARHGAP8 (11727945_x_at) / Fold change /veh ARHGAP8 /// PRR5-ARHGAP8 (11727945_x_at) / RFU KRTAP5-7 /// NADSYN1 (11734609_at) / Fold change /veh KRTAP5-7 /// NADSYN1 (11734609_at) / RFU RASL12 (11751679_a_at) / Fold change /veh RASL12 (11751679_a_at) / RFU CDKN2B (11736163_a_at) / Fold change /veh CDKN2B (11736163_a_at) / RFU PRF1 (11729649_at) / Fold change /veh PRF1 (11729649_at) / RFU, ZNF638 /// ZNF638-IT1 / Fold change vs veh, ZNF638 /// ZNF638-IT1 / RFU, PANK3 / Fold change vs veh, PANK3 / RFU, SH3YL1 / Fold change vs veh, SH3YL1 / RFU, ZEB2 / Fold change vs veh, ZEB2 / RFU, NRIP1 / Fold change vs veh, NRIP1 / RFU, PTTG1IP / Fold change vs veh, PTTG1IP / RFU, CAPN2 / Fold change vs veh, CAPN2 / RFU, MED14 / Fold change vs veh, MED14 / RFU, SNORA58 / Fold change vs veh, SNORA58 / RFU, C1orf63 / Fold change vs veh, C1orf63 / RFU, LRRFIP1 / Fold change vs veh, LRRFIP1 / RFU, NDUFAF7 / Fold change vs veh, NDUFAF7 / RFU, SLC12A2 / Fold change vs veh, SLC12A2 / RFU, IBTK / Fold change vs veh, IBTK / RFU, ESF1 / Fold change vs veh, ESF1 / Fold change vs veh, TMEM50B / RFU, TAOK1 / Fold change vs veh, TAOK1 / RFU, ACBD3 / Fold change vs veh, ACBD3 / RFU, TMA16 / Fold change vs veh, TMA16 / RFU, RWDD3 / Fold change vs veh, RWDD3 / RFU, BCAT1 / Fold change vs veh, BCAT1 / RFU, EDEM3 / Fold change vs veh, EDEM3 / RFU, TMEM33 / Fold change vs veh, TMEM33 / RFU, WDR75 / Fold change vs veh, WDR75 / RFU, AHCTF1 / Fold change vs veh, AHCTF1 / RFU, TFRC / Fold change vs veh, TFRC / RFU, ZDHHC17 / Fold change vs veh, ZDHHC17 / RFU, NOM1 / Fold change vs veh, NOM1 / RFU, ARL8B / Fold change vs veh, ARL8B / RFU, ZBTB11 / Fold change vs veh, ZBTB11 / RFU, TAMM41 / Fold change vs veh, TAMM41 / RFU, KIAA1704 /// LOC100996395 / Fold change vs veh, KIAA1704 /// LOC100996395 / RFU, ING1 / Fold change vs veh, ING1 / RFU, TRMT61B / Fold change vs veh, TRMT61B / RFU, FUBP3 / Fold change vs veh, FUBP3 / RFU, TP53 / Fold change vs veh, TP53 / RFU, TNKS2 / Fold change vs veh, TNKS2 / RFU, ZFP14 / Fold change vs veh, ZFP14 / RFU, ACTR2 / Fold change vs veh, ACTR2 / RFU, PPP3R1 / Fold change vs veh, PPP3R1 / RFU, PIK3R1 / Fold change vs veh, PIK3R1 / RFU, HNRNPA1 / Fold change vs veh, HNRNPA1 / RFU, RNF170 / Fold change vs veh, RNF170 / RFU, ZNF28 / Fold change vs veh, ZNF28 / RFU, RNGTT / Fold change vs veh, RNGTT / RFU, OGT / Fold change vs veh, OGT / RFU, BRD1 / Fold change vs veh, BRD1 / RFU, MARS / Fold change vs veh, MARS / RFU, ZNF655 / Fold change vs veh, ZNF655 / RFU, FAHD1 / Fold change vs veh, FAHD1 / RFU, BDP1 / Fold change vs veh, BDP1 / RFU, LRRCC1 / Fold change vs veh, LRRCC1 / RFU, ARID1A / Fold change vs veh, ARID1A / RFU, ZNF146 / Fold change vs veh, ZNF146 / RFU, ZNF330 / Fold change vs veh, ZNF330 / RFU, GPN3 / Fold change vs veh, GPN3 / RFU, C9orf123 / Fold change vs veh, C9orf123 / RFU, N4BP2L2 / Fold change vs veh, N4BP2L2 / RFU, ARFIP1 / Fold change vs veh, ARFIP1 / RFU, FAM179B / Fold change vs veh, FAM179B / RFU, BCL10 / Fold change vs veh, BCL10 / RFU, UHRF1BP1L / Fold change vs veh, UHRF1BP1L / RFU, BET1 / Fold change vs veh, BET1 / RFU, CNOT2 / Fold change vs veh, CNOT2 / RFU, ZNF268 / Fold change vs veh, ZNF268 / Fold change vs veh, ZNF507 / RFU, DGCR2 / Fold change vs veh, DGCR2 / RFU, WDSUB1 / Fold change vs veh, WDSUB1 / Fold change vs veh, HSP90B1 /// MIR3652 / RFU, ADSS / Fold change vs veh, ADSS / RFU, GK / Fold change vs veh, GK / RFU, ZNF148 / Fold change vs veh, ZNF148 / RFU, TAF9 / Fold change vs veh, TAF9 / RFU, SLC1A5 / Fold change vs veh, SLC1A5 / RFU, SLMO2 / Fold change vs veh, SLMO2 / RFU, ABCC4 / Fold change vs veh, ABCC4 / RFU, LOC101060439 /// RAP1B / Fold change vs veh, LOC101060439 /// RAP1B / RFU, RFX7 / Fold change vs veh, RFX7 / RFU, GTPBP10 / Fold change vs veh, GTPBP10 / RFU, CNEP1R1 / Fold change vs veh, CNEP1R1 / RFU, BIVM-ERCC5 /// ERCC5 / Fold change vs veh, BIVM-ERCC5 /// ERCC5 / RFU, ILF3 / Fold change vs veh, ILF3 / RFU 11762660_at / Fold change /veh 11762660_at / RFU VCAN (11757783_s_at) / Fold change /veh VCAN (11757783_s_at) / RFU DDX43 (11728927_at) / Fold change /veh DDX43 (11728927_at) / RFU KRT8 (11758188_x_at) / Fold change /veh KRT8 (11758188_x_at) / RFU NKD1 (11759106_at) / Fold change /veh NKD1 (11759106_at) / RFU SRD5A1 (11742802_a_at) / Fold change /veh SRD5A1 (11742802_a_at) / RFU TPSAB1 /// TPSB2 (11721975_s_at) / Fold change /veh TPSAB1 /// TPSB2 (11721975_s_at) / RFU GSTM3 (11746129_a_at) / Fold change /veh GSTM3 (11746129_a_at) / RFU IL23R (11737362_x_at) / Fold change /veh IL23R (11737362_x_at) / RFU TMEM51 (11727254_a_at) / Fold change /veh TMEM51 (11727254_a_at) / RFU PIWIL2 (11732686_x_at) / Fold change /veh PIWIL2 (11732686_x_at) / RFU ORM1 (11744905_x_at) / Fold change /veh ORM1 (11744905_x_at) / RFU CCDC152 (11743942_at) / Fold change /veh CCDC152 (11743942_at) / RFU ECM1 (11717891_a_at) / Fold change /veh ECM1 (11717891_a_at) / RFU IL23R (11748794_a_at) / Fold change /veh IL23R (11748794_a_at) / RFU TNFAIP8L3 (11732012_x_at) / Fold change /veh TNFAIP8L3 (11732012_x_at) / RFU MBOAT4 (11741988_at) / Fold change /veh MBOAT4 (11741988_at) / RFU 11764193_at / Fold change /veh 11764193_at / RFU TMEM53 (11763286_at) / Fold change /veh TMEM53 (11763286_at) / RFU MAGEB2 (11727129_at) / Fold change /veh MAGEB2 (11727129_at) / RFU TMEM200A (11744735_a_at) / Fold change /veh TMEM200A (11744735_a_at) / RFU CCDC152 (11751479_a_at) / Fold change /veh CCDC152 (11751479_a_at) / RFU FAM211A (11726209_a_at) / Fold change /veh FAM211A (11726209_a_at) / RFU RGS16 (11746705_a_at) / Fold change /veh RGS16 (11746705_a_at) / RFU VCAN (11755009_s_at) / Fold change /veh VCAN (11755009_s_at) / RFU RHOB (11743442_s_at) / Fold change /veh RHOB (11743442_s_at) / RFU RGS16 (11720943_a_at) / Fold change /veh RGS16 (11720943_a_at) / RFU RGS16 (11720944_at) / Fold change /veh RGS16 (11720944_at) / RFU, VPS4B / Fold change vs veh, VPS4B / RFU, CREB1 / Fold change vs veh, CREB1 / RFU, DNAJC13 / Fold change vs veh, DNAJC13 / RFU, GNAQ / Fold change vs veh, GNAQ / RFU, CDK5R1 / Fold change vs veh, CDK5R1 / RFU, ZRANB3 / Fold change vs veh, ZRANB3 / RFU, CUL4A / Fold change vs veh, CUL4A / RFU, CCNY / Fold change vs veh, CCNY / RFU, UFL1 / Fold change vs veh, UFL1 / RFU, COG3 / Fold change vs veh, COG3 / RFU, DIAPH2 / Fold change vs veh, DIAPH2 / RFU, SKA2 / Fold change vs veh, SKA2 / RFU, AFF3 / Fold change vs veh, AFF3 / RFU, LMF1 / Fold change vs veh, LMF1 / RFU, IPO11 / Fold change vs veh, IPO11 / RFU, DFFB / Fold change vs veh, DFFB / RFU, FOXP1 / Fold change vs veh, FOXP1 / RFU, CARD8 / Fold change vs veh, CARD8 / RFU, STRN3 / Fold change vs veh, STRN3 / RFU, ADK / Fold change vs veh, ADK / RFU, RASSF2 / Fold change vs veh, RASSF2 / RFU, WIPF1 / Fold change vs veh, WIPF1 / RFU, LARP1B / Fold change vs veh, LARP1B / RFU, RASA1 / Fold change vs veh, RASA1 / RFU, RB1 / Fold change vs veh, RB1 / RFU, PPFIA1 / Fold change vs veh, PPFIA1 / RFU, MAT2A / Fold change vs veh, MAT2A / RFU, CCT5 / Fold change vs veh, CCT5 / RFU, WDR92 / Fold change vs veh, WDR92 / RFU, CUX1 / Fold change vs veh, CUX1 / RFU, TTC7A / Fold change vs veh, TTC7A / RFU, TMEM135 / Fold change vs veh, TMEM135 / RFU, DEPTOR / Fold change vs veh, DEPTOR / RFU, CPM / Fold change vs veh, CPM / RFU, DNAJB6 / Fold change vs veh, DNAJB6 / RFU, CACNA2D3 / Fold change vs veh, CACNA2D3 / RFU, DTX4 / Fold change vs veh, DTX4 / RFU, TFCP2 / Fold change vs veh, TFCP2 / RFU, GMCL1 /// GMCL1P1 / Fold change vs veh, GMCL1 /// GMCL1P1 / RFU, AEBP2 / Fold change vs veh, AEBP2 / RFU, SNHG1 /// SNORD22 /// SNORD25 /// SNORD26 /// SNORD27 /// SNORD28 /// SNORD29 /// SNORD31 / Fold change vs veh, SNHG1 /// SNORD22 /// SNORD25 /// SNORD26 /// SNORD27 /// SNORD28 /// SNORD29 /// SNORD31 / Fold change (Aza/veh), C12orf56 (ProbeSet 11735607_a_at) / Fold change (ACY-1035/veh), C12orf56 (ProbeSet 11735607_a_at) / Fold change (Aza/veh), FGFR1OP (ProbeSet 11751329_s_at) / Fold change (ACY-1035/veh), FGFR1OP (ProbeSet 11751329_s_at) / Fold change (Aza/veh), VPS36 (ProbeSet 11739960_a_at) / Fold change (ACY-1035/veh), VPS36 (ProbeSet 11739960_a_at) / RFU SYPL1 (11715823_x_at) / Fold change /veh SYPL1 (11715823_x_at) / RFU IGFBP7 (11715501_s_at) / Fold change /veh IGFBP7 (11715501_s_at) / RFU REEP3 (11722064_at) / Fold change /veh REEP3 (11722064_at) / RFU IGLL1 (11728026_x_at) / Fold change /veh IGLL1 (11728026_x_at): dose or concentration left out as unconfirmed
Details: MV-4-11 cells, 48 hours

Nc1ncn([C@@H]2O[C@H](CO)[C@@H](O)[C@H]2O)c(=O)n1 [azacitidine]
Fold change /veh LOC730098 (11760151_x_at): 1.03
